Assay [1] deals with IFN-γ production from CD8^+ T cells. Briefly: T-cell stimulation bead-induced IFN-γ production in CD8^+ T cells. The class given is cell-based, human. The following applies: CD3/CD28 stimulation, 3 days. Here is the method: (§1) Cryopreserved PBMCs were quickly thawed in a 37° C. thermostat and added to a tube containing medium. After centrifugation (at room temperature at 300 g for 10 minutes) to remove the supernatant, the cells were suspended in the medium, a portion of which was then mixed with a trypan blue solution to count the number of viable cells. The cell suspension was centrifuged (at room temperature at 300 g for 10 minutes) to remove the supernatant, followed by addition of MACS Buffer in a volume of 80 μL per 1×10^7 cells to suspend the cells, to which Human CD8 MicroBeads (20 μL) were further added. After being allowed to stand on ice for 15 minutes, the cell suspension was diluted with MACS Buffer (2 mL) and centrifuged (at room temperature at 300 g for 10 minutes) to remove the supernatant.
MACS Buffer (500 μL) was added to the tube, and the cells were suspended and then applied to a separatory column to separate CD8^+ cells. The CD8^+ cell fraction was diluted to 15 mL with the medium and then centrifuged (at room temperature at 300 g for 10 minutes). The supernatant was removed and the cells were suspended in the medium (1 mL), followed by counting the number of viable cells. The cell suspension adjusted with the medium to 1×10^6 cells/mL was seeded in a 96-well plate in a volume of 100 μL/well (1×10^5 cells/well) and allowed to stand in a CO2 incubator for 1 to 2 hours.
The collected culture supernatants were quantified for IFN-γ using Human IFN-γ DuoSet ELISA.

Assay [2] concerns IL-6 production from CD14^+ cells. Briefly: LPS stimulation-induced IL-6 production in CD14^+ cells. The class given is cell-based, human. As to conditions: for pIC50: Homo sapiens, 72 h, CD14^+ cells, LPS 3 ng/mL, 3 days. As for the experimental part:
as §1, with “suspended again” for “suspended”, “followed by counting” for “a portion of which was then mixed with a trypan blue solution to count”, “Buffer” for “Buffer in a volume of 80 μL per 1×10^7 cells”, “CD14” for “CD8”, “MicroBeads” for “MicroBeads (20 μL)”, “Buffer” for “Buffer (2 mL)”
(§2) MACS Buffer was added to the tube, and the cells were suspended and then applied to a separatory column to separate CD14^+ cells. The CD14^+ cell fraction was diluted with the medium and then centrifuged (at room temperature at 300 g for 10 minutes). The supernatant was removed and the cells were suspended in the medium (1 mL), followed by counting the number of viable cells. The cell suspension was adjusted with the medium to 2.4×10^5 or 3×10^5 cells/mL and seeded in a 96-well plate (2.4×10^4 cells/well), which was then allowed to stand in a CO2 incubator for 1 to 2 hours.
The collected culture supernatants were quantified for IL-6 using Human IL-6 DuoSet ELISA.

In assay [3] the test system is OPN production from CD14^+ cells. Briefly: LPS stimulation-induced OPN production in CD14^+ cells. The class given is cell-based, human. The following applies: for pIC50: Homo sapiens, 72 h, LPS 500 ng/mL, 3 days. Here is the method:
as §2, with “Cryopreserved PBMCs were quickly thawed in a 37° C. thermostat and added to a tube containing medium. After centrifugation (at room temperature at 300 g for 10 minutes) to remove the supernatant, the cells were suspended again in the medium, followed by counting the number of viable cells. The cell suspension was centrifuged (at room temperature at 300 g for 10 minutes) to remove the supernatant, followed by addition of MACS Buffer to suspend the cells, to which Human CD14 MicroBeads were further added. After being allowed to stand on ice for 15 minutes, the cell suspension was diluted with MACS Buffer and centrifuged (at room temperature at 300 g for 10 minutes) to remove the supernatant. MACS” for “MACS”
The collected culture supernatants were quantified for OPN using Human OPN DuoSet ELISA.

Assay [4] relates to IL-6 production in CD4^+ T cell-depleted PBMCs. Briefly: T-cell stimulation bead- and LPS stimulation-induced CRS toxicity evaluation system in CD4^+ T cell-depleted PBMCs: IL-6. It counts as cell-based, human. The following applies: for pIC50: Homo sapiens, 72 h, 3 days. As for the experimental part:
Cryopreserved human PBMCs were quickly thawed in a 37° C. thermostat and added to a tube containing medium. After centrifugation (at room temperature at 300 g for 10 minutes) to remove the supernatant, the cells were suspended again in the medium (10 mL), followed by counting the number of viable cells. The remainder of the cell suspension was centrifuged (at room temperature at 300 g for 10 minutes) to remove the supernatant, followed by addition of MACS Buffer in a volume of 80 μL and Human CD4 MicroBeads in a volume of 20 μL per 1×10^7 cells to suspend the cells. After being allowed to stand on ice for 15 minutes, the cell suspension was diluted with MACS Buffer (2 mL) and centrifuged (at room temperature at 300 g for 10 minutes) to remove the supernatant. MACS Buffer (500 μL) was added to the tube, and the cells were suspended and then applied to a separatory column to separate CD4^− cells (a pass-through fraction of CD4^+ cells). The CD4^− cell fraction was diluted to 15 mL with the medium and then centrifuged (at room temperature at 300 g for 10 minutes) to remove the supernatant, and the cells were then suspended again in the medium (1 mL), followed by counting the number of viable cells. The cell suspension adjusted with the medium to 1×10^6 cells/mL was seeded in a 96-well plate in a volume of 100 μl/well (1×10^5 cells/well) and allowed to stand in a CO2 incubator for 1 to 2 hours.
The collected culture supernatants were quantified for IFN-γ and IL-6 using Human IFN-γ DuoSet ELISA and Human IL-6 DuoSet ELISA.

Another assay has as its system IFN-γ production. Briefly: CRS toxicity evaluation system using CAR-T cells: IFN-γ. It counts as cell-based. The following applies: Homo sapiens, Monocyte, target cells and monocytes, 72 hours. Here is the method: (§3) The supernatants were collected at 72 hours after the initiation of culture, and various cytokines in each supernatant were measured by FACS multiplex assay.

For another assay, the system named is MCP-1 production. The assay can be described thus: CRS toxicity evaluation system using CAR-T cells: MCP-1. As to conditions: Homo sapiens, Monocyte; CAR-T cells, target cells and monocytes, 72 hours. The class given is cell-based, human. Here is the method: as §3
In a further assay the test system is IL-18 production. The assay can be described thus: CRS toxicity evaluation system using CAR-T cells: IL-18. The class given is cell-based. The following applies: Homo sapiens, Monocyte, target cells and monocytes, 72 hours, reference data because of low production. As for the experimental part: as §3

For orientation: pIC50 means the IC50 on a negative log10 scale, so that one unit is a factor of ten.

Structures are written as SMILES. pIC50: −log10 of the molar value. Structures can show the parent of a compound that is named as a salt.

In the case of `CCOC(=O)[C@H](Cc1ccccc1)NC(=O)c1cc(Cl)c(OCCN2CCN(C)CC2)c(Cl)c1O` [JTE-607, (−)-ethyl N-{3,5-dichloro-2-hydroxy-4-[2-(4-methylpiperazin-1-yl)ethoxy]benzoyl}-L-phenylalaninate dihydrochloride], the pIC50 in assay [1] (Homo sapiens, T-cell, 72 h) is < 6.52; in assay [2] it was 7.28; in assay [3], 6.88; in assay [4] (CD3/CD28 + LPS) it was 7.37; with IFN-γ production, 6.22; in the assay on MCP-1 production, 7.42. In addition, the pIC50 in the assay with IL-18 production is 6.06. Also, the results for the “Ratio (IL-6/IFN-γ) of IC50 values” in assay [2] (CD14^+ cells (IL-6) / CD8^+ T cells (IFN-γ)) and in assay [4] (CD3/CD28 + LPS) were <0.18 and 0.52, respectively.

`C[C@]12C=CC(=O)C=C1CC[C@@H]1[C@@H]2[C@@H](O)C[C@@]2(C)[C@H]1CC[C@]2(O)C(=O)CO` [PSL, Prednisolone]: the pIC50 in assay [1] was 6.83; in assay [1] (Homo sapiens, T-cell, 72 h), 6.83; in assay [2], 6.82; in assay [3] it was < 4.52; in assay [4] (CD3/CD28 + LPS), < 4.52; in the assay on IFN-γ production, 6.06. The values for the pIC50 in the assay with MCP-1 production and in the assay with IL-18 production were 4.14 and < 4.00, respectively. For the same compound, the “suppressive effect on OPN production” value in assay [3] (LPS) is listed as “no suppressive effect”. In assay [4] (T-cell stimulation beads and LPS), the “suppression of IL-6 production” value was “did not suppress”.

The values are drawn from patent publication US11744830B2, “Ameliorative agent for cytokine release syndrome and so on” (TORII PHARMACEUTICAL CO., LTD., priority 2018, dated 2023).
